Experimental data from patent publication US11230593B2, “Compositions and methods for treating and preventing influenza” (VISTERRA, INC., priority 2019, dated 2022).
Like-named read-outs stand apart in the source and are kept apart here.

How the values were obtained:
[1] = test system: A/Michigan/45/2015 (H1N1); test: microbe, parasite or virus in culture; type: cell-based, Influenza A
[2] = test system: A/Hong Kong/4801/2014 (H3N2); test: microbe, parasite or virus in culture; type: cell-based, Influenza A
[3] = in vivo, cited from earlier work
[4] = test system: A/PR/8/1934 (H1N1) (wild-type); test: microbe, parasite or virus in culture; type: cell-based; conditions: Influenza A virus
[5] = test system: A/California/04/2009 (H1N1); test: microbe, parasite or virus in culture; type: cell-based; conditions: Influenza A virus
[6] = test system: MDCK cells
[7] = read-out: EC50 (μM) - Replicate 1
[8] = read-out: EC50 (μM) - Replicate 2

## CCC(CC)[C@H](NC(C)=O)[C@@H]1[C@H](O)[C@@H](C(=O)O)C[C@H]1N=C(N)N.O.O.O [Peramivir (PER), Peramivir trihydrate]
[1]; [7]
  EC50: 0.01 µM
[1]; [8]
  EC50: < 0.006 µM
[2]
  EC50: the most potent NAI
[2]; read-out: EC50
  EC50: 57 nM

## CC(=O)N[C@H]1[C@H]([C@H](O)[C@H](O)CO)OC(C(=O)O)=C[C@@H]1N=C(N)N [Zanamivir (ZAN), Zanamivir]
[1]; Influenza A virus, H1N1, MDCK, read-out: EC50 (μM) - Replicate 1
  EC50: 0.06 µM
[1]; Influenza A virus, H1N1, MDCK, read-out: EC50 (μM) - Replicate 2
  EC50: 0.034 µM
[2]; Influenza A virus, H3N2, 40 h
  EC50: 2600 nM

## O=C1c2c(O)c(=O)ccn2N([C@@H]2c3ccccc3SCc3c2ccc(F)c3F)[C@@H]2COCCN12 [baloxavir, Baloxavir]
[3]; 40 mg
  Cmax: 96.4 ng/mL
[3]; 80 mg
  Cmax: 107 ng/mL
[4]
  EC50: ~1 nM
[2]; Influenza A virus, H3N2
  EC50: 0.8 nM
[5]
  EC50: 1 nM

## Oseltamivir acid [Oseltamivir (OSE)]
[1]; [7]
  EC50: 0.18 µM
[1]; [8]
  EC50: 0.024 µM
[2]; read-out: EC50
  EC50: 760 nM
[6]
  CC50: >50 µg/mL
